Laboratory results as given in ChEMBL document CHEMBL5291721, “A preclinical secondary pharmacology resource illuminates target-adverse drug reaction associations of marketed drugs” (Nat Commun, 2023).

Legend:
[1] = molecular target: T1, Prostaglandin G/H synthase 1 (Rattus norvegicus, UniProt Q63921); format: functional
T1 sequence (Q63921 whole entry): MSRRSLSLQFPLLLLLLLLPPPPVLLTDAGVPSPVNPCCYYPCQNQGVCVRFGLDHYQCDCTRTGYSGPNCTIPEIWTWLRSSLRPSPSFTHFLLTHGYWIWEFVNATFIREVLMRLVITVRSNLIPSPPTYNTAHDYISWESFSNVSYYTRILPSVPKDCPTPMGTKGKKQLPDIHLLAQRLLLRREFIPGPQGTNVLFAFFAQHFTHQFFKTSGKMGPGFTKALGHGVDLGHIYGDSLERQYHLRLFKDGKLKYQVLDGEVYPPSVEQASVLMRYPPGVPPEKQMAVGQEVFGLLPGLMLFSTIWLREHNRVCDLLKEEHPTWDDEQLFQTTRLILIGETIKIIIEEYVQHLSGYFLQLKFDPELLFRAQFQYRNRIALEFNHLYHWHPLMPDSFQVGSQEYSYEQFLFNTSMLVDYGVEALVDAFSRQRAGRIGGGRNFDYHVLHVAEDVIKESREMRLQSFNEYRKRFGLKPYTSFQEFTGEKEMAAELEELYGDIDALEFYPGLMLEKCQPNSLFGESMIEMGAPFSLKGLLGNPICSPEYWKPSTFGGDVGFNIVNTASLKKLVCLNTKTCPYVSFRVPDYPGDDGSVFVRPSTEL

D(1A) dopamine receptor = D(1A) dopamine receptor (Homo sapiens, UniProt P21728)
[2] = molecular target: T2, Alpha-1A adrenergic receptor (Homo sapiens, UniProt P35348)
T2 sequence (P35348 whole entry): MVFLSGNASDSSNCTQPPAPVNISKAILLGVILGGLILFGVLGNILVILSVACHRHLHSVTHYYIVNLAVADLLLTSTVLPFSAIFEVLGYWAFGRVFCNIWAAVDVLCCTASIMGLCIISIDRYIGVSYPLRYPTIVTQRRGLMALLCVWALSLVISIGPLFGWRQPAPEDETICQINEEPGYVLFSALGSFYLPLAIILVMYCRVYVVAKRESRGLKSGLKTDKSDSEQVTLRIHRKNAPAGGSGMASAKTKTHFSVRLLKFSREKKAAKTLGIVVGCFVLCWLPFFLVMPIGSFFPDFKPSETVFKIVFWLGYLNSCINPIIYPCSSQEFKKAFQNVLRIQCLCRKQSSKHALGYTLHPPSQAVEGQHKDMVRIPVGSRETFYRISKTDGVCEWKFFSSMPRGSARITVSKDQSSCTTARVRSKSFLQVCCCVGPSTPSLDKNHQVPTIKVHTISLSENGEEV

[3] = molecular target: 5-hydroxytryptamine receptor 5A (Homo sapiens, UniProt P47898)
D(1B) dopamine receptor = D(1B) dopamine receptor (Homo sapiens, UniProt P21918)
[4] = molecular target: Rod cGMP-specific 3',5'-cyclic phosphodiesterase subunit alpha (Homo sapiens, UniProt P16499); format: functional
Substance-K receptor = molecular target: T3, Substance-K receptor (Homo sapiens, UniProt P21452)
T3 sequence (P21452 whole entry): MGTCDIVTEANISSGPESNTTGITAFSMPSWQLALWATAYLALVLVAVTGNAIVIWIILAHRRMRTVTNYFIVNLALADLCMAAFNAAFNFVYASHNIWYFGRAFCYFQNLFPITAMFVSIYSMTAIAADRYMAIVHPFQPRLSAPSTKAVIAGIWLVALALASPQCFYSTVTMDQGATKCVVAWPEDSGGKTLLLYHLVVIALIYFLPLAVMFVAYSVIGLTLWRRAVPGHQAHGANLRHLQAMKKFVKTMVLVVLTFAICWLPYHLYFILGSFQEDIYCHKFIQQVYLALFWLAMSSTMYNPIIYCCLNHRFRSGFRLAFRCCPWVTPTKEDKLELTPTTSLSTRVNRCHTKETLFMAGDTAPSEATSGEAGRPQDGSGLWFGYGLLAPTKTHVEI

[5] = molecular target: T4, Muscarinic acetylcholine receptor M4 (Homo sapiens, UniProt P08173)
T4 sequence (P08173 whole entry): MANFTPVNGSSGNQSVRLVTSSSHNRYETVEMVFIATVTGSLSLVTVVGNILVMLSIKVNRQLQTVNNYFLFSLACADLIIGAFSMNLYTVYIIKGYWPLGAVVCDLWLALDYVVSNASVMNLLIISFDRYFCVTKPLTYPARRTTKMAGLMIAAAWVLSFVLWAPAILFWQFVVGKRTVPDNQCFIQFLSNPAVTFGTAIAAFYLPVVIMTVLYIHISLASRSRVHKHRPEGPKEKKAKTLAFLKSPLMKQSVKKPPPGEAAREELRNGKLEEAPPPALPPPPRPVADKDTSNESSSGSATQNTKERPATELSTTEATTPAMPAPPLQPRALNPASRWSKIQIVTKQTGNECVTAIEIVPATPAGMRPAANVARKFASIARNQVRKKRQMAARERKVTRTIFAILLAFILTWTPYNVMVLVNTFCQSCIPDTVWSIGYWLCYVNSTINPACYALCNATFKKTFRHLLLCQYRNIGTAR

[6] = molecular target: Beta-1 adrenergic receptor (Homo sapiens, UniProt P08588); format: functional, cell-based
[7] = molecular target: Sodium-dependent serotonin transporter (Homo sapiens, UniProt P31645)
[8] = molecular target: 5-hydroxytryptamine receptor 2B (Homo sapiens, UniProt P41595)
[9] = molecular target: T5, Alpha-2A adrenergic receptor (Homo sapiens, UniProt P08913)
T5 sequence (P08913 whole entry): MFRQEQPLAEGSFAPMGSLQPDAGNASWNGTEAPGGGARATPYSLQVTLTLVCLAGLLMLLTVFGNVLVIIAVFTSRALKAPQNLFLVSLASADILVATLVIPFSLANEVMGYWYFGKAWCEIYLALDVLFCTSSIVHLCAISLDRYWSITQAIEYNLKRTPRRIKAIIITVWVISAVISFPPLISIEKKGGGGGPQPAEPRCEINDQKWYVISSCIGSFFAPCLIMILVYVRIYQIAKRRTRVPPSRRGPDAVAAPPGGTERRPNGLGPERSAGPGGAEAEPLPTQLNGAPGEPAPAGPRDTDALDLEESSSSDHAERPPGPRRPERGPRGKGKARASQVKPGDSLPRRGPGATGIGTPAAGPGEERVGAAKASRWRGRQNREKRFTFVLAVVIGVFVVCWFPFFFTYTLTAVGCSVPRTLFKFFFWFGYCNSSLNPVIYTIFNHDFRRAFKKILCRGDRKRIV
Note: assay procedure not described here.

Beta-1 adrenergic receptor, sequence (P08588 whole entry): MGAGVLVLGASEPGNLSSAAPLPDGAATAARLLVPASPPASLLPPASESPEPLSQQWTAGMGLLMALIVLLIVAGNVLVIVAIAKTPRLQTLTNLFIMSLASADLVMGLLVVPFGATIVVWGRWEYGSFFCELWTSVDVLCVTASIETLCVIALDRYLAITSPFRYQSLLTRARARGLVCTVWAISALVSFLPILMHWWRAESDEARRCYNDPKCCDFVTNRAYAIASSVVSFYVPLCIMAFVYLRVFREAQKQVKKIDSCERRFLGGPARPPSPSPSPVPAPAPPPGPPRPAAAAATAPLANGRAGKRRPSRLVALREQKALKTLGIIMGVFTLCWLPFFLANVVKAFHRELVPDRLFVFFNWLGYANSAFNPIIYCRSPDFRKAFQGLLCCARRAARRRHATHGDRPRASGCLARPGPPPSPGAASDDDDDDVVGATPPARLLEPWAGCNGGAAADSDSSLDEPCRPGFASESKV
5-hydroxytryptamine receptor 5A, sequence (P47898 whole entry): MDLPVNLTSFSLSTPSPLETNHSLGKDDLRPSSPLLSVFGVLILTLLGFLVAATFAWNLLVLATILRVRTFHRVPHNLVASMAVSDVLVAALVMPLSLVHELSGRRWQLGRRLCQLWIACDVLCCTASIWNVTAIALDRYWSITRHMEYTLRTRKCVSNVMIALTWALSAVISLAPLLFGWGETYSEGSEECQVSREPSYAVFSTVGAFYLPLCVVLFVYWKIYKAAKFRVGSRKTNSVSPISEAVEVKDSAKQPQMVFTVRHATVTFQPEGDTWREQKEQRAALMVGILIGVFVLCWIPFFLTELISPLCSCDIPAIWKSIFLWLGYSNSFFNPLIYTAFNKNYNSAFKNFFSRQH
D(1A) dopamine receptor, sequence (P21728 whole entry): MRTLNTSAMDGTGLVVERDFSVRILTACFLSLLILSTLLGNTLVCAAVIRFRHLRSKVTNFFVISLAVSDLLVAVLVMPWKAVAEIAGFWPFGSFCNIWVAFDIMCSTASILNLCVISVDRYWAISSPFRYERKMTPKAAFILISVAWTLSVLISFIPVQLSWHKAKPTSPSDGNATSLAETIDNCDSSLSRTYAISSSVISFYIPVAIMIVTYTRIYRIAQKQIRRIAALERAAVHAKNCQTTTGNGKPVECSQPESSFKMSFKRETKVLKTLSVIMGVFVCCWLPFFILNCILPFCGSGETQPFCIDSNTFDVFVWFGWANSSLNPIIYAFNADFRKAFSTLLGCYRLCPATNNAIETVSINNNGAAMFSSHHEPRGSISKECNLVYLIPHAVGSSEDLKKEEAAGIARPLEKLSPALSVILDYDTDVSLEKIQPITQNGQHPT
D(1B) dopamine receptor, sequence (P21918 whole entry): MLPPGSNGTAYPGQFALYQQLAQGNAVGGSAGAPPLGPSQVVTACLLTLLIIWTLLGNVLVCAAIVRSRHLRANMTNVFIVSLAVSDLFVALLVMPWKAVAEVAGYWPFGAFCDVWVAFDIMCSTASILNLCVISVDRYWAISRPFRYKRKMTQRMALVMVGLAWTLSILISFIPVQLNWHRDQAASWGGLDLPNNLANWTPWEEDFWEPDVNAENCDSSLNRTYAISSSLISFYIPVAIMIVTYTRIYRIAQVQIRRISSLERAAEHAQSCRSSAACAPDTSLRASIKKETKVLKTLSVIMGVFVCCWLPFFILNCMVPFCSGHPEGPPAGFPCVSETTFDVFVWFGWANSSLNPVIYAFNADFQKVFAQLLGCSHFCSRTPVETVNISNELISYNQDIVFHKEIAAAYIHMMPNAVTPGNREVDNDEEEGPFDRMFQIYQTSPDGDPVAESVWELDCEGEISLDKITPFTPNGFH
Rod cGMP-specific 3',5'-cyclic phosphodiesterase subunit alpha, sequence (P16499 whole entry): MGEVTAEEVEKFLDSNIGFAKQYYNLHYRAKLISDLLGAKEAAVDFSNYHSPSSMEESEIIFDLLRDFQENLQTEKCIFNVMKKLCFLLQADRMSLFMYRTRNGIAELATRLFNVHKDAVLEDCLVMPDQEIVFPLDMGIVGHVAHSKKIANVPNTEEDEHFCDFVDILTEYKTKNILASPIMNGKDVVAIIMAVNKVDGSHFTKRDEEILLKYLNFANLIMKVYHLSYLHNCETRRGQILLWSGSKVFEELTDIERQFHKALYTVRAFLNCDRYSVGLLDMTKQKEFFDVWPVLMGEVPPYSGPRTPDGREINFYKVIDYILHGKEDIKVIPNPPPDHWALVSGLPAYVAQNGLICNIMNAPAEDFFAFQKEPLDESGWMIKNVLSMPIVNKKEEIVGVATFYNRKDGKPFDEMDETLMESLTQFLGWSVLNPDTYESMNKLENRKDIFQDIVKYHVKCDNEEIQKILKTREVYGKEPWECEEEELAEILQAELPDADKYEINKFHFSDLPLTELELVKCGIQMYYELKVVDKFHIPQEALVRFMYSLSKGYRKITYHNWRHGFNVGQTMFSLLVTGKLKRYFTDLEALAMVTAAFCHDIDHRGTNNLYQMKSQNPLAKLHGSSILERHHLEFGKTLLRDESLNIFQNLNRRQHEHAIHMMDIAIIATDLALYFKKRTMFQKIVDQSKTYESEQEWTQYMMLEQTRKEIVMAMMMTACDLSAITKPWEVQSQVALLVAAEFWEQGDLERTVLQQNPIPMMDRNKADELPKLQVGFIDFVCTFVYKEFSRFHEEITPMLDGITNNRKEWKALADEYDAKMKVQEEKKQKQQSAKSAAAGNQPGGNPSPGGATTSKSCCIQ
5-hydroxytryptamine receptor 2B, sequence (P41595 whole entry): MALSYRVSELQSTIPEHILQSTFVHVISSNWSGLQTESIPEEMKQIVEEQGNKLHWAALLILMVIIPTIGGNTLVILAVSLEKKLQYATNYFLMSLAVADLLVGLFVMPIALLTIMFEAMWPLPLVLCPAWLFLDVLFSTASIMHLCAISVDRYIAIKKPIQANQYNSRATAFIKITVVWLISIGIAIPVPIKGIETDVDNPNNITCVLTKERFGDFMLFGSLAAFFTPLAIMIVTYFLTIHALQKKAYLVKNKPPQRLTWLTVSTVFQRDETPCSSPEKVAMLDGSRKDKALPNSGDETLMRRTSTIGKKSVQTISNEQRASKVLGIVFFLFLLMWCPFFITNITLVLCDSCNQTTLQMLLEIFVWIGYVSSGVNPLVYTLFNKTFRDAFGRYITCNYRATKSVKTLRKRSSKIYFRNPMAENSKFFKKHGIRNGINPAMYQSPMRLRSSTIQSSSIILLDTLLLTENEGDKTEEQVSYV
Sodium-dependent serotonin transporter, sequence (P31645 whole entry): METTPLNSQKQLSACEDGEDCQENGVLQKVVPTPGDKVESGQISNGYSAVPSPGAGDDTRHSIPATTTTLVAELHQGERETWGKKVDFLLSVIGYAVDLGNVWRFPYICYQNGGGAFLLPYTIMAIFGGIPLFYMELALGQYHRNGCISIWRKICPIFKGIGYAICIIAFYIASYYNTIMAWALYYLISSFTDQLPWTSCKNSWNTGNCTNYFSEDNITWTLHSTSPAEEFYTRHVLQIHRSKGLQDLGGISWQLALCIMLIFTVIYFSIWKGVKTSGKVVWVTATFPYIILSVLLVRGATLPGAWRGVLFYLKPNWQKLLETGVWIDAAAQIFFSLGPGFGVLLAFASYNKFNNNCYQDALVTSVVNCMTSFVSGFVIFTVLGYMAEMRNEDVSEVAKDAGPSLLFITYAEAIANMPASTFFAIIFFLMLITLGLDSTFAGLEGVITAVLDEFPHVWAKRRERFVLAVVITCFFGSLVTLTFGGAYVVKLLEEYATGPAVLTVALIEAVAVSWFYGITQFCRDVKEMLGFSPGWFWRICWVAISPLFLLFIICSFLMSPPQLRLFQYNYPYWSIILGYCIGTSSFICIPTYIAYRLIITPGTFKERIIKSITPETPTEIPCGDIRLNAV

SMILES: CC(C)COCC(CN(Cc1ccccc1)c1ccccc1)N1CCCC1 (configuration not stated) [BEPRIDIL]
- AC50 [1]: > 30 µM

SMILES: C=C1CC[C@H](O)C/C1=C/C=C1\CCC[C@]2(C)[C@@H]([C@H](C)/C=C/[C@H](C)C(C)C)CC[C@@H]12 [ERGOCALCIFEROL]
- AC50 (D(1A) dopamine receptor): > 30 µM
- AC50 [2]: 24.7 µM

SMILES: CN1CCN(C2=Nc3ccccc3Oc3ccc(Cl)cc32)CC1 [LOXAPINE]
- AC50 [3]: 1.04 µM
- AC50 (D(1B) dopamine receptor): 0.248 µM
- AC50 [4]: > 10 µM
- AC50 (Substance-K receptor): > 10 µM
- AC50 [5]: 3.73 µM

SMILES: CC(C(=O)O)c1ccc(CC2CCCC2=O)cc1 (configuration not stated) [LOXOPROFEN]
- AC50 [6]: > 30 µM

SMILES: OC1(c2ccc(Cl)cc2)c2ccccc2C2=NCCN21 (configuration not stated) [MAZINDOL]
- AC50 [3]: > 10 µM
- AC50 (D(1B) dopamine receptor): > 10 µM
- AC50 [4]: > 10 µM
- AC50 [7]: 0.23 µM
- AC50 (Substance-K receptor): > 10 µM
- AC50 [5]: > 10 µM

SMILES: O=[N+]([O-])c1ccc(O)c2ncccc12 [NITROXOLINE]
- AC50 (D(1A) dopamine receptor): > 30 µM
- AC50 [2]: > 30 µM

SMILES: CCCN[C@H]1CCc2nc(N)sc2C1 [PRAMIPEXOLE]
- AC50 [8]: 18.4 µM

SMILES: C[C@H](Cc1cc2c(c(C(N)=O)c1)N(CCCO)CC2)NCCOc1ccccc1OCC(F)(F)F [SILODOSIN]
- AC50 [9]: 6.2 µM

SMILES: Clc1ccc(C(Cn2ccnc2)OCc2ccsc2Cl)c(Cl)c1 (configuration not stated) [TIOCONAZOLE]
- AC50 [1]: 14 µM

SMILES: Cc1cc(C(C)(C)C)cc(C)c1CC1=NCCN1 [XYLOMETAZOLINE]
- AC50 [9]: 0.005 µM
- AC50 [6]: > 30 µM
